Measured values: article PMC5862616 (Oncotarget, 2018)
“Also recorded” adds a separate entry of the source.

Experiments:
KM-12 cells [1] = assay: KM-12 anchorage independent growth in alginate; assay type: cell-based; settings: alginate, 72 hours, colony formation, read-out: IC50 KM-12 anchorage independent growth
MKNK2 = MKNK2 (Homo sapiens, UniProt Q9HBH9); assay: scanMAX kinase panel
AXL = target: T1, AXL (Homo sapiens, UniProt P30530); assay: scanMAX kinase panel
T1 sequence (P30530 26-894): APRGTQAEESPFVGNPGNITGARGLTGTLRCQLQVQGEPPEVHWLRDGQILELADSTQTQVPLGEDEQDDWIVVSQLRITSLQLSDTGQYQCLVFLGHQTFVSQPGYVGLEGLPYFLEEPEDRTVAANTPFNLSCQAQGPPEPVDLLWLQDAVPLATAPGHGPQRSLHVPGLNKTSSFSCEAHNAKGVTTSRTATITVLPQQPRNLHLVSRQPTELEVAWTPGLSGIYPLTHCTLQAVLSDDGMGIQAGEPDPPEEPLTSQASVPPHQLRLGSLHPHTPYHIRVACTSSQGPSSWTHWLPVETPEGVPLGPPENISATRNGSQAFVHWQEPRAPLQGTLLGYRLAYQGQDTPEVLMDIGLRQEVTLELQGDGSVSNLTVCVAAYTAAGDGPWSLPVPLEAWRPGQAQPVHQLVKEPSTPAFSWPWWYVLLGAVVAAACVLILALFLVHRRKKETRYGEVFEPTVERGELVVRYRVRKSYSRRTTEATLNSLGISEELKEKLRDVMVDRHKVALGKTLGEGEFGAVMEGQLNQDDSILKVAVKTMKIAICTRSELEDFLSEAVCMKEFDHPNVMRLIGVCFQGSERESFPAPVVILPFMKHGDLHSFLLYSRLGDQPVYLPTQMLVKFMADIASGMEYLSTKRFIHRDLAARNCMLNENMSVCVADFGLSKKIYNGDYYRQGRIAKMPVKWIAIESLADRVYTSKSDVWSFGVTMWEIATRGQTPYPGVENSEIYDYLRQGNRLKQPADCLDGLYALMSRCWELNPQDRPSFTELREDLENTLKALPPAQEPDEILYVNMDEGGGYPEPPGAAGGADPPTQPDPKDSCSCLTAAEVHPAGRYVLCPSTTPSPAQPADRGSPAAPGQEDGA

CSF1R = CSF1R (Homo sapiens, UniProt P07333); assay: scanMAX kinase panel
RET = RET (Homo sapiens, UniProt P07949); assay: scanMAX kinase panel
[2] = target: TPM3-NTRK1 (p-NTRK1 Y490) in KM-12 cells (Homo sapiens, UniProt P04629+P06753); assay: Western blot of p-NTRK1 Y490 in KM-12 cells; settings: 2 hours, b12: 100, 500, 1000 nM
ROS1 = ROS1 (Homo sapiens, UniProt P08922); assay: scanMAX kinase panel
DDR2 = target: T2, DDR2 (Homo sapiens, UniProt Q16832); assay: scanMAX kinase panel
T2 sequence (Q16832 22-855): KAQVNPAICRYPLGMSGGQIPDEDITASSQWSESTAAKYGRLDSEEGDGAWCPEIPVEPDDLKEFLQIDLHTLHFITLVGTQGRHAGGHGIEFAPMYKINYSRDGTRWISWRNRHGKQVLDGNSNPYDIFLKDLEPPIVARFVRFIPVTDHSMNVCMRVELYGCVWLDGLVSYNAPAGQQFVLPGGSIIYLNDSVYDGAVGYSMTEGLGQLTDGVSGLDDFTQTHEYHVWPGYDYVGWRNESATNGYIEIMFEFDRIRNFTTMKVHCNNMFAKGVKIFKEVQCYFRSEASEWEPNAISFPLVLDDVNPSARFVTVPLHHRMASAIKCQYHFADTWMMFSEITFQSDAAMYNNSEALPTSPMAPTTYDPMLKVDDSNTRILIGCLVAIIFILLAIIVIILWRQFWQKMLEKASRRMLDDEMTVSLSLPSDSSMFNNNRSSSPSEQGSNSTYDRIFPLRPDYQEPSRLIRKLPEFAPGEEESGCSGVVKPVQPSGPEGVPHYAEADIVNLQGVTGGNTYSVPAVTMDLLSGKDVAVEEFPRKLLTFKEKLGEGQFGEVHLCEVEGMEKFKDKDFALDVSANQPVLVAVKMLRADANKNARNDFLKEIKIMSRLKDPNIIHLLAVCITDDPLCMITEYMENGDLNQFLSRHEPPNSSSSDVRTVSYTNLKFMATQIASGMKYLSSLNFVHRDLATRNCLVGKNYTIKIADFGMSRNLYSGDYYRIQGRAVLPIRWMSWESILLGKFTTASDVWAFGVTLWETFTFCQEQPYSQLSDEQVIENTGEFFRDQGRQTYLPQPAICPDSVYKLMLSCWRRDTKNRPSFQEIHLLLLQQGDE

DDR1 = DDR1 (Homo sapiens, UniProt Q08345); assay: scanMAX kinase panel
MET = MET (Homo sapiens, UniProt P08581); assay: scanMAX kinase panel
NTRK1 (TrkA) = NTRK1 (TrkA) (Homo sapiens, UniProt P04629); assay: TrkA PathHunter cell based kinase assay (activation by NGF); set-up: purchased DiscoveRx; settings: activation by the ligand NGF; ten-point, 3.8 nM - 10 μM
KM-12 cells [3] = assay: KM-12 anchorage dependent cell proliferation (CellTiter-Glo); assay type: cell-based; settings: read-out: IC50 KM-12 cell proliferation (anchorage dependent)
PDGFRA = PDGFRA (Homo sapiens, UniProt P16234); assay: scanMAX kinase panel
[4] = tested on: p-ERK (MAPK 42/44) in KM-12 cells; assay: Western blot of phosphorylated MAPK 42/44 (ERK) in KM-12 cells; assay type: cell-based; settings: KM-12 cells, 2 hours, western blot; b12: 100, 500, 1000 nM
Experimental: 20 μg NTRK1 fusion confirmation
T20 (ThermoScientific, Rockford, IL) for 30 minutes. MiniPrep cat# R2051 following manufacturer ’s protocol. […]
(1:2000) (Sigma-Aldrich), HRP-conjugated mouse or primers. The primer sequences are TPM3_Ex3B_F5:
Chalfont, UK). All western blots were developed using Ex12_R5: […]. PCR was […]

[5] = 72 hours, CellTiter-Glo, 2% FBS

Chain of PDGFRA (P16234 24-1089): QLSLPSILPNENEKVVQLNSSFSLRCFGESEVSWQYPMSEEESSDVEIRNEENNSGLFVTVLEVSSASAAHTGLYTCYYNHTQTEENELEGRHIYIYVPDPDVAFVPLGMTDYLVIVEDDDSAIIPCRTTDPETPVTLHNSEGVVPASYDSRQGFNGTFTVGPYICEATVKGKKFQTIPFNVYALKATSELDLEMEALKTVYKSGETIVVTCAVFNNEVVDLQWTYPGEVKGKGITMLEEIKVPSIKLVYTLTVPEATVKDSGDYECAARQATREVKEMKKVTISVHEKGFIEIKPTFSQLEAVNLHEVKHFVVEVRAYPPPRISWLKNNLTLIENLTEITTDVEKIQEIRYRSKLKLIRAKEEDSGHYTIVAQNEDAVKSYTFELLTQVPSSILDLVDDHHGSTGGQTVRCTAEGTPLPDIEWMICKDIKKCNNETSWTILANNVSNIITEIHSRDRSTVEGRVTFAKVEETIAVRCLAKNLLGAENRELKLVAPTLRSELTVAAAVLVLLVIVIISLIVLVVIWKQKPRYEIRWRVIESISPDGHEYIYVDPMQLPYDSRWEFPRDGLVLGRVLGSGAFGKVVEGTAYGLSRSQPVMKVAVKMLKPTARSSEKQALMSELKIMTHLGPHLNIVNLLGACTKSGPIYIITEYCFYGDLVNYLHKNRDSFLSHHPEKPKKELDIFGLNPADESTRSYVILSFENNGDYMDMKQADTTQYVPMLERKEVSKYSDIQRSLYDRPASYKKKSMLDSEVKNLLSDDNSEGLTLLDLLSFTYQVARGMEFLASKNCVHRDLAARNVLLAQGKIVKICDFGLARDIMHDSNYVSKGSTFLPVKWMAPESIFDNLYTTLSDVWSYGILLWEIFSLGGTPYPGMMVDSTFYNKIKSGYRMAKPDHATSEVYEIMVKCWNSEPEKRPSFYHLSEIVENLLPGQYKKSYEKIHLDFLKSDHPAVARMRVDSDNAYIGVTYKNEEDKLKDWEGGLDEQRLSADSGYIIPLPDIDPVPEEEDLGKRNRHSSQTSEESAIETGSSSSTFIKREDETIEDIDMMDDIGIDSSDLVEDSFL
Chain of ROS1 (P08922 28-2347): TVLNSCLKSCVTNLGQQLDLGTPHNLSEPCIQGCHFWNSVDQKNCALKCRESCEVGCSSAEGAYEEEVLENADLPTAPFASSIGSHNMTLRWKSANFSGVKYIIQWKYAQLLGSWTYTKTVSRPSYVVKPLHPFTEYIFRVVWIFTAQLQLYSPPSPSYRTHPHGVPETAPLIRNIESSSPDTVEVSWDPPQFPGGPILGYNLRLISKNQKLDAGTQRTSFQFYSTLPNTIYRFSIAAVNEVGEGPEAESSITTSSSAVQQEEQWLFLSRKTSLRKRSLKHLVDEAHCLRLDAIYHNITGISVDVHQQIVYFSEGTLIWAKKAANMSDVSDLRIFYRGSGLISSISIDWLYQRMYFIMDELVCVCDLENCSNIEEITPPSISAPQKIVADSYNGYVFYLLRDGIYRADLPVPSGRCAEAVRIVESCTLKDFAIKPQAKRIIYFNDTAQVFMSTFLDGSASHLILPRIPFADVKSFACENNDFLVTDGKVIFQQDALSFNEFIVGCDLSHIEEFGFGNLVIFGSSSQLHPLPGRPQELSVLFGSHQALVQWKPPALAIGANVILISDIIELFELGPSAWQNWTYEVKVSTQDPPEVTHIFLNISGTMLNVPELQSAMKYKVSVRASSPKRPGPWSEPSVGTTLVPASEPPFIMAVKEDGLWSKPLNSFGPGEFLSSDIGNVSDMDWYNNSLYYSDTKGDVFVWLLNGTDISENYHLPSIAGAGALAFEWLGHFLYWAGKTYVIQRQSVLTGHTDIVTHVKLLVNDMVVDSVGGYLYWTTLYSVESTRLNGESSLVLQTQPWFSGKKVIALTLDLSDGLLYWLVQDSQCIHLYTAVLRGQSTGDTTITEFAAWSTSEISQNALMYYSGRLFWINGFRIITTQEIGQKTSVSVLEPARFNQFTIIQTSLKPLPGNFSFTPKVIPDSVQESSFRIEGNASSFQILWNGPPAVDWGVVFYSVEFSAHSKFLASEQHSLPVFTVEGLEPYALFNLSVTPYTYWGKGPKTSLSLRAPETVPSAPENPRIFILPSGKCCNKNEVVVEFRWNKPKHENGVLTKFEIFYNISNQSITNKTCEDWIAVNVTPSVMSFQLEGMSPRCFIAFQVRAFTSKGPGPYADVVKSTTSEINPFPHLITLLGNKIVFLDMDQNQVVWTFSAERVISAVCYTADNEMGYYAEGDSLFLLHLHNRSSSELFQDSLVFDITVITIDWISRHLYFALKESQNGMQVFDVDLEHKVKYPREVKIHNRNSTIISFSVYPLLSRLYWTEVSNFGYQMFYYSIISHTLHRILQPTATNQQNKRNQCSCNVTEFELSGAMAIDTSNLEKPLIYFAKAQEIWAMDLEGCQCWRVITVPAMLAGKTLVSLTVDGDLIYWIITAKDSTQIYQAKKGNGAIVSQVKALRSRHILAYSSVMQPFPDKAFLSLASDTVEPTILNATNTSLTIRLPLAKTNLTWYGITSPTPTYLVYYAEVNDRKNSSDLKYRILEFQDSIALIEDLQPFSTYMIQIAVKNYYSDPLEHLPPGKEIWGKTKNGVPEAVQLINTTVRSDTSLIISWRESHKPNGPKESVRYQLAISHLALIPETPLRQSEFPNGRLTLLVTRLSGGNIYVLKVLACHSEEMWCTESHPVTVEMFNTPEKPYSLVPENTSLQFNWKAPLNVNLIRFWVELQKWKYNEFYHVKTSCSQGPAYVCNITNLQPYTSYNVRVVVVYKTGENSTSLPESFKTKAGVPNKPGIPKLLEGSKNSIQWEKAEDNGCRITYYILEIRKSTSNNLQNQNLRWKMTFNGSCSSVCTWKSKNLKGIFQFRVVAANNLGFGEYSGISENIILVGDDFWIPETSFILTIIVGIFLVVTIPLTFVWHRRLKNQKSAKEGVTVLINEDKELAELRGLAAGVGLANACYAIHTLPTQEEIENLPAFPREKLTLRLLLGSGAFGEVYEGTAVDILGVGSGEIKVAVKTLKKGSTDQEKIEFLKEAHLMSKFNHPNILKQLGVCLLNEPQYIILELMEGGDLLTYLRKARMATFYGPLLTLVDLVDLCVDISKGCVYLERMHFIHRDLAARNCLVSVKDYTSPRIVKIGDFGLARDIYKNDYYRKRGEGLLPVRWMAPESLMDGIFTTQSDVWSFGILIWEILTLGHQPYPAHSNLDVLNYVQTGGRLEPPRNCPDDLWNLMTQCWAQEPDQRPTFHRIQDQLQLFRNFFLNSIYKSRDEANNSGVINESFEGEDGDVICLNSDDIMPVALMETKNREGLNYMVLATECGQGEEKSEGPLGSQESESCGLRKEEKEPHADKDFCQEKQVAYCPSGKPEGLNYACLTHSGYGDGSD
Chain of MKNK2 (Q9HBH9 whole entry): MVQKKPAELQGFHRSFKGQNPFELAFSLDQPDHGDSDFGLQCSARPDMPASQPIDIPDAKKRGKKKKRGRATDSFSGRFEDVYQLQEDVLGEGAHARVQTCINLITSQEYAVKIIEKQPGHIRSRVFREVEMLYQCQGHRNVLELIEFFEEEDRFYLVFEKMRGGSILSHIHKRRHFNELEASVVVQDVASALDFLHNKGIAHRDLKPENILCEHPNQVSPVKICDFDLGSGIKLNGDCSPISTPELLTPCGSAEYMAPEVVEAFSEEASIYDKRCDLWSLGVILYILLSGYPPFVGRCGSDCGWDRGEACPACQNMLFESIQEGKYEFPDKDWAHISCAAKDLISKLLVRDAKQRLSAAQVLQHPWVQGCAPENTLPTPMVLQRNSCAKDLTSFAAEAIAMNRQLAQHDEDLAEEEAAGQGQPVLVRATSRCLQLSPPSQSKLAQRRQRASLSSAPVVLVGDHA
Chain of TPM3-NTRK1 (p-NTRK1 Y490) in KM-12 cells (P06753+P04629 fused): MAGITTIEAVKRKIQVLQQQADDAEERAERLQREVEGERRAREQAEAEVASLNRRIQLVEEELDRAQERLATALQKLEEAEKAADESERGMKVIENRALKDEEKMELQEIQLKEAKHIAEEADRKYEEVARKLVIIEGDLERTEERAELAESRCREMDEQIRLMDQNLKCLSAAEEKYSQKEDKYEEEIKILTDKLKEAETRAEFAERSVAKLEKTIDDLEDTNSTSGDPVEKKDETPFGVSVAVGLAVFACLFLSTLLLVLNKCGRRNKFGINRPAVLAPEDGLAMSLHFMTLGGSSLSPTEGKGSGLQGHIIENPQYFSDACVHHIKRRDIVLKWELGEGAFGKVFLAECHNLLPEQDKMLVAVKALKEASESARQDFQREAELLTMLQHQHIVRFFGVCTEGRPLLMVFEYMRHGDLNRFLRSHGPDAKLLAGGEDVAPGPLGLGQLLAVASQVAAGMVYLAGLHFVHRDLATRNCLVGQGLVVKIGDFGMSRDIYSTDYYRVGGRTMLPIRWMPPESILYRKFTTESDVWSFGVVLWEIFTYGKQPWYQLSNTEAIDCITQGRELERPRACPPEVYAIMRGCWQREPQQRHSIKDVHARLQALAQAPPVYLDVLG

SMILES	IC50 (KM-12 cells [1])	% Inhibition at 0.2 μM, MKNK2 (MKNK2)	% Inhibition at 0.2 μM, AXL (AXL)	% Inhibition at 0.2 μM, CSF1R (CSF1R)	% Inhibition at 0.2 μM, RET (RET)	p-NTRK1 inhibition (in words) [2]	% Inhibition at 0.2 μM, ROS1 (ROS1)	% Inhibition at 0.2 μM, DDR2 (DDR2)	% Inhibition at 0.2 μM, DDR1 (DDR1)	% Inhibition at 0.2 μM, MET (MET)	IC50 (NTRK1 (TrkA))	IC50 (KM-12 cells [3]; [5])	% Inhibition at 0.2 μM, PDGFRA (PDGFRA)	p-ERK inhibition (in words) [4]	IC50 (KM-12 cells [1]; Homo sapiens, KM12)	inhibition at 0.2 µM (MKNK2; read-out: % Inhibition at 0.2 μM, MKNK2)	inhibition at 0.2 µM (AXL; read-out: % Inhibition at 0.2 μM, AXL)	IC50 (KM-12 cells [3]; Homo sapiens, KM12, 72 h)
Cc1ccc(C(=O)Nc2ccc(Oc3cc4cn[nH]c4cc3-c3cn[nH]c3)c(F)c2)c(=O)n1-c1ccc(F)cc1 [M1]	79 nM	98%	99%	98%	72%	potent inhibition	95%	94%	100%	100%	12 nM	16 nM	80%	potent inhibition	–	–	–	–
Cn1ncc2cc(Oc3ccc(NC(=O)c4ccc(CO)n(-c5ccc(F)cc5)c4=O)cc3F)c(-c3cn[nH]c3)cc21 [M2]	206 nM	95%	100%	97%	61%	slightly less so	78%	99%	100%	93%	92 nM	102 nM	70%	slightly less so	–	–	–	–
Cc1ccc(C(=O)Nc2ccc(Oc3cc4cnn(C)c4cc3-c3cn[nH]c3)c(F)c2)c(=O)n1-c1ccc(F)cc1 [Merestinib]	–	–	–	97%	79%	dose dependent decrease; also recorded: potent inhibition	83%	97%	100%	98%	17 nM	–	55%	dose dependent inhibition; also recorded: potent inhibition	45 nM	98%	100%	10 nM
